In patent US10821079B2, “PKC activators and combinations thereof” (Cognitive Research Enterprises, Inc., priority 2011, dated 2020):
Like-named read-outs stand apart in the source and are kept apart here.

Columns and labels:
PKC = settings: cited from earlier work
[1] = cited from earlier work
PKC-ε = molecular target: T1, PKC-ε (Homo sapiens, UniProt Q02156); assay: Activation of purified PKC isozymes, radiometric: PKC-ε; type: biochemical
T1 sequence (Q02156 1-737): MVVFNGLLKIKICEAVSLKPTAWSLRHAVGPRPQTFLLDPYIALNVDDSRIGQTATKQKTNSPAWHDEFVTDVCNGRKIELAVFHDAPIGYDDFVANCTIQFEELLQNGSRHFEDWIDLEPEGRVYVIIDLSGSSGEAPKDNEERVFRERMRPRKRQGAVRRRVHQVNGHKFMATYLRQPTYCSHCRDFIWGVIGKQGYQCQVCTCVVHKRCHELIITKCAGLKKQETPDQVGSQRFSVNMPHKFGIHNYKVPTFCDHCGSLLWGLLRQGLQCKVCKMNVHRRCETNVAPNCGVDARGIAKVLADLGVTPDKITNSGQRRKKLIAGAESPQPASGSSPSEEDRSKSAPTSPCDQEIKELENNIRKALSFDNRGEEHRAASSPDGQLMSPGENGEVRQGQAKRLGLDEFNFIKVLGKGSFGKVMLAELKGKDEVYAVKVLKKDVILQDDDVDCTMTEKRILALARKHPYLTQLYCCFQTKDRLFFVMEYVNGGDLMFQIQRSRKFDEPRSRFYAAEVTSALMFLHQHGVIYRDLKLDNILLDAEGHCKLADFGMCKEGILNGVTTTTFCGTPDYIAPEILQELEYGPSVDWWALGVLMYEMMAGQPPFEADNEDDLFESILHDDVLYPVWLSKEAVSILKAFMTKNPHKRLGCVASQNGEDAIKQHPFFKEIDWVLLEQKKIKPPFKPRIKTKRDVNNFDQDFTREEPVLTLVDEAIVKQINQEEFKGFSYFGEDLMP
Procedure: (§1) To measure PKC, 10 μl of cell homogenate or purified PKC isoform was incubated for 15 min at 37° C. in the presence of 10 μM histones, 4.89 mM CaCl2, 1.2 μg/μl phosphatidyl-L-serine, 0.18 μg/μl 1,2-dioctanoyl-sn-glycerol, 10 mM MgCl2, 20 mM HEPES (pH 7.4), 0.8 mM EDTA, 4 mM EGTA, 4% glycerol, 8 μg/ml aprotinin, 8 μg/ml leupeptin, and 2 mM benzamidine. [γ32P]ATP (0.5 μCi) was added and 32P-phosphoprotein formation was measured by adsorption onto phosphocellulose as described previously. See Nelson et al., J. Neurochemistry, 1995, 65: 2350-2357.
(§2) PKC activity of each compound was measured in the absence of diacylglycerol and phosphatidylserine and PKC-δ and PKC-ε were measured in the absence of added EGTA and CaCl2, as described by Kanno et al., J. Lipid Res., 2006, 47: 1146-1156. Low concentrations of Ca^2+ were needed because high Ca^2+ can interact with the PKC phosphatidylserine binding site and prevents activation. […] To determine their PKC isoform specificity, the compounds were pre-incubated with purified isoforms of PKC for five minutes and the PKC activity was measured radiometrically.
(§3) The activation and PKC isozyme specificity of DCPLA-ethyl ester was measured following the procedures in Example 1(B) and (C), except that 9 ng of the purified isozyme was used and it was pre-incubated for 5 minutes at room temperature (FIG. 3). PKC-ε activation by DCPLA-tert-butyl ester and DCPLA-retinyl ester was measured in the same manner as DCPLA-ethyl ester (FIG. 3).
The EC50 values, PKC specificity, and activation for a select number of DCPLA esters was determined (see Table 1). EC50 values were determined by measuring the lowest concentration that activates by 50% of maximum activation. […] The specificity and activation of PKC by the various esters of DCPLA were calculated from the measurements of activation of PKC isozymes.

PKCα = PKCα (Homo sapiens, UniProt P17252); assay: Activation of purified PKC isozymes, radiometric: PKC-α; type: biochemical
Procedure: (§4) To measure PKC activity, 10 μg of protein from either cytosol or membrane was incubated for 15 min at 37° C. in the presence of 10 μM histones, 4.89 mM CaCl2, 1.2 μg/μl phosphatidyl-L-serine, 0.18 μg/μl 1,2-dioctanoyl-sn-glycerol, 10 mM MgCl2, 20 mM HEPES (pH 7.4), 0.8 mM EDTA, 4 mM EGTA, 4% glycerol, 8 μg/ml aprotinin, 8 μg/ml leupeptin, 2 mM benzamidine, and 0.5 μCi of [γ-^32P]ATP. [^32P]Phosphoprotein formation was measured by adsorption onto phosphocellulose as described previously. See Nelson et al. (2009) J Biol Chem 284, 34514-34521. For measurements of activation by RA, PKC activity was measured in the absence of diacylglycerol (DAG) and phosphatidylserine, as described by Nelson et al. (2009) J Biol Chem 284, 34514-34521. PKC-δ and PKC-ε were measured in the absence of added EGTA and CaCl^2, as described by Kanno et al. (2006) J Lipid Res 47, 1146-1156. The enzyme was provided as a purified isozyme for in vitro experiments.
as §1, §2, §3

PKC-δ = PKC-δ (Homo sapiens, UniProt Q05655); assay: Activation of purified PKC isozymes, radiometric: PKC-δ; type: biochemical
Chain of PKC-δ (Q05655 whole entry): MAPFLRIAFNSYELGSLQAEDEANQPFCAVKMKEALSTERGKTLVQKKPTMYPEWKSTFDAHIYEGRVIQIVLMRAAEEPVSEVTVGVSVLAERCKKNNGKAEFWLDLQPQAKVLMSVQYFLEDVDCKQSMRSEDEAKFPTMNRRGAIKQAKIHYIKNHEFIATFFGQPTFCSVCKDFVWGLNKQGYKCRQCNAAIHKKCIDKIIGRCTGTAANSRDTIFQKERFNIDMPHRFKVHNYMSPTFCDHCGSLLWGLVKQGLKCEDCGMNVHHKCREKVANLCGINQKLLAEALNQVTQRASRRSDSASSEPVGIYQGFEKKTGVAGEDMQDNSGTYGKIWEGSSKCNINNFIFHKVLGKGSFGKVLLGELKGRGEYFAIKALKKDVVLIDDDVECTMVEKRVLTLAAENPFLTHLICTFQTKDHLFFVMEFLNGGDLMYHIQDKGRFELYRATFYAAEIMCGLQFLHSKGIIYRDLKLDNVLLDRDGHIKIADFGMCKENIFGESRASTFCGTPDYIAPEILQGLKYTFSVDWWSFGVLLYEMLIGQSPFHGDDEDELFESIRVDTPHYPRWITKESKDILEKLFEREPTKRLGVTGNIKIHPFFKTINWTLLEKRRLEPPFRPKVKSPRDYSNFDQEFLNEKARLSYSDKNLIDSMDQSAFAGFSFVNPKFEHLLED
Procedure: as §4, §1, §2

Structure (SMILES): CCCCCCCC(=O)O[C@H]1/C(=C/C(=O)OC)C[C@H]2C[C@H](CO)OC(=O)C[C@H](O)C[C@@H]3CCC[C@H](C[C@@H]4CCO[C@H](/C=C/C(C)(C)[C@]1(O)O2)O4)O3 [Analog 1]
- affinity for PKC (in words) (PKC): highest affinity for PKC
- Ki (PKC; read-out: PKC Affin): 0.25 nM

Structure (SMILES): CCC/C=C/C=C/C(=O)O[C@H]1/C(=C/C(=O)OC)C[C@H]2C[C@H]([C@@H](C)O)OC(=O)C[C@H](O)C[C@@H]3C[C@H](OC(C)=O)C(C)(C)[C@](O)(C[C@@H]4C/C(=C/C(=O)OC)C[C@H](/C=C/C(C)(C)[C@]1(O)O2)O4)O3 [Bryostatin-1]
- time detectable in the blood ([1]; after a single injection): 14 days
- share of initial dose in the blood ([1]; at 100 hrs, intravenous injection): 1%
- t1/2 in the blood stream ([1]; blood): 1 h

Structure (SMILES): CCCCCC1CC1CC1CC1CCCCCCCC(=O)OC(C)C (centres unmarked) [DCPLA-isopropyl ester]
- PKC-ε activation at peak (PKC-ε): up to 40 % of control
- concentration of maximal activation (PKC-ε): 10 nM
- Specificity ε/α (PKC-ε; Activation of PKC-ε ÷ activation or inhibition of PKCα at 3 × EC50): 1.4
- PKC-α activation (PKCα): up to 40 % of control
- effect on PKC-δ (in words) (PKC-δ): only slightly activated

Structure (SMILES): CCCCCCCC(=O)OC1C(=CC(=O)OC)CC2CC(CO)OC(=O)CC(O)CCOC(CCCc3ccc(Br)cc3)CC3CCOC(C=CC(C)(C)C1(O)O2)O3 (centres unmarked) [bryolog 5]
- Ki (PKC; A-ring bryologs, read-out: affinity for PKC): 1.9 nM
